In patent US20110190235A1, “BORON-CONTAINING SMALL MOLECULES AS ANTIPROTOZOAL AGENTS” (Anacor Pharmaceuticals, Inc., priority 2009, published 2011):
In brackets after ≈: the same amount, converted by molar mass. Read-outs that look alike come from different tables or passages of the source.

How the values were obtained:
[1] = Pharmacokinetic studies in rats (plasma, brain, CSF); type: in vivo; conditions: for half-life: read-out: t½ (converted); for Cmax / AUC(0-t) / AUC(0-inf): normalized to 25 mg/kg; for AUC(0-t): read-out: Exposure/trapezoid AUC0-18; for AUC(0-inf): read-out: Exposure/trapezoid AUC0-inf
Method: Male Sprague Dawley rats weighing approximately 200 g received test article (E19 or 82) as a single oral gavage (OG) dose of approximately 25 mg/kg (approximately 10 animals per group).
All doses were administered as clear colorless solutions as in situ sodium salts in 5% (m/v) dextrose:2% (v/v) ethanol in DWI. All dose solutions were delivered at 2 mL/kg. Animals were fasted for at least 4 hours before dosing, and for 2 hours after dosing.
Blood and CSF samples and brain tissue were sampled from 1 animal/timepoint/group immediately before dosing and approximately 0.5, 1, 2, 3, 4, 6, 8, 12, 18 and 24 hr after dosing for full pharmacokinetic (plasma and CSF) and tissue (Brain) analysis.

[2] = Pharmacokinetic studies in mice (plasma, brain); type: in vivo; conditions: for half-life / CL/F / Cmax / AUC(0-t) / AUC(0-inf): male, CD-1, mouse; for half-life: read-out: t½ (converted); for CL/F: read-out: Oral Clearance Cl/F (converted); for AUC(0-inf): read-out: Exposure/trapezoid AUC0-inf
Method: Male CD-1 mice weighing approximately 25 g received the test article (E19 or 82 or E14 or 69) by either intravenous (IV), oral gavage (OG) or intra-peritoneal (IP) routes. Animals in IV group (6-10 animals, 1-2 per time point) received a single bolus injection of approximately 2 mg/kg of the test article. Animals receiving […], or as 4 repeat doses ([…], 1-2 per time point).
All doses were administered as clear colorless solutions in either: 50% (v/v) PEG400:20% (v/v) ethanol:30% (v/v) carboxymethylcellulose (0.5% w/v in sterile water for injection, WFI), or as in situ sodium salts in 5% (m/v) dextrose:2% (v/v) ethanol in DWI. All dose solutions were delivered at 4 mL/kg. Animals were fasted for at least 4 hours before dosing, and for 2 hours after dosing.
Blood samples and brain tissue were sampled from 1 or 2 animals/timepoint/group immediately before dosing and approximately 0.17, 0.5, 1, 2, 3, 4, 6, 8, 12, 18 and 24 hr after dosing for full pharmacokinetic and tissue analysis, or at 0.5, 2 and 4 hours post dosing to assess early-phase CNS disposition.
Bioanalysis for test article in whole blood, plasma or brain tissue was performed by HPLC with tandem mass spectrometry (LC-MSMS). Whole blood and plasma samples were treated with 3 volumes of either acetonitrile or methanol to precipitate plasma proteins. Treated samples were centrifuged and supernatants removed for analysis. Brain tissues were weighed and homogenized mechanically in the presence of 1 volume of phosphate-buffered saline (PBS). The resulting tissue suspensions were then diluted with a further volume of PBS, and then treated in the same manner as whole blood or plasma.
Extracted samples were assayed for test article by means of LC-MSMS employing reversed-phase chromatography coupled to a triple quadrupole mass spectrometer employing electrospray ionization in the positive ion mode. The analytical column was a Phenomenex Luna 3μ C8 50×2 mm, with an online sample purification step performed on a Phenomenex Synergi 4μ Polar RP 50×2 mm column.
Test articles were eluted using a binary mobile phase gradient comprising 5 mM Ammonium Acetate: 0.1% formic acid in either MeOH or H2O.
Non-compartmental analysis of plasma test article concentration versus time was performed in Microsoft Excel to generate pharmacokinetic parameters including: area under the curve (AUC), clearance (as Cl or Cl/F), volume of distribution (Vdss), half-life (t½), and bioavailability (F).

[3] = system: bloodstream-form trypanosome T. brucei brucei 427 strain; test: Trypanosoma brucei brucei high-throughput in vitro drug sensitivity assay (resazurin); type: cell-based; conditions: for IC50: Trypanosoma brucei, 72 hrs incubation
[4] = L929 cytotoxicity evaluation (resazurin); type: cell-based; conditions: mouse, L929 mouse fibroblast cells; 72 hrs incubation; read-out: Cytotox L-929 IC50
How it was run: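 Mouse L929 fibroblasts (1×10^4/mL seeding, attached overnight) were treated 72 h at 37 °C, 5% CO2 with serially diluted compounds in DMSO in D-MEM/10% FBS. Viability read by resazurin fluorescence after 3–4 h (ex 544/em 590 nm); IC50 from sigmoidal fits of single data points.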

[5] = male, Sprague Dawley, rat, CSF, oral, rats
[6] = male, Sprague Dawley, rat, brain, oral, rats
[7] = male, Sprague Dawley, rat, plasma, oral, rats
[8] = 8 mg/kg, brain, oral, mice (Table 3a)
[9] = 8 mg/kg, brain, oral, mice, normalized to 25 mg/kg (Table 3a)
[10] = 8 mg/kg, plasma, oral, mice (Table 3a)
[11] = 8 mg/kg, plasma, oral, mice, normalized to 25 mg/kg (Table 3a)

## O=C(Nc1ccc2c(c1)B(O)OC2)c1ccc(F)cc1C(F)(F)F [E19, 4-Fluoro-N-(1-hydroxy-1,3-dihydro-benzo[c][1,2]oxaborol-6-yl)-2-trifluoromethyl-benzamide]
[1]; male, Sprague Dawley, rat, 25 mg/kg, CSF, oral, rats
  half-life: 3.1 h
[1]; male, Sprague Dawley, rat, 25 mg/kg, brain, oral, rats
  half-life: 2.6 h
[1]; male, Sprague Dawley, rat, 25 mg/kg, plasma, oral, rats, read-out: Oral Clearance Cl/F (converted)
  CL/F: 4.35 mL/min/kg
[1]; male, Sprague Dawley, rat, 25 mg/kg, plasma, oral, rats
  half-life: 8.1 h
[1]; [5]
  Cmax: 1200 ng/mL
  AUC(0-t): 3800 ng·h/mL
  AUC(0-inf): 3900 ng·h/mL
[1]; [6]
  Cmax: 2500 ng/mL
  AUC(0-t): 12700 ng·h/mL
  AUC(0-inf): 12700 ng·h/mL
[1]; [7]
  Cmax: 12300 ng/mL
  AUC(0-t): 98300 ng·h/mL
  AUC(0-inf): 102000 ng·h/mL
[1]; nominal single oral dose of 25 mg/kg to rats
  time levels in brain and CSF are above the in vitro MIC: 4 h
[1]; plasma, oral, rats
  F (% of IV): 123.0%
[1]; rats
  dose proportionality of exposure in plasma, brain and CSF: increase in a generally proportional manner with dose
[2]; 25 mg/kg, brain, oral, mice
  half-life: 2.3 h
[2]; 25 mg/kg, plasma, oral, mice
  CL/F: 3.83 mL/min/kg
  half-life: 17.1 h
[2]; brain, oral, mice, normalized to 25 mg/kg (nominal 25 mg/kg)
  Cmax: 6100 ng/mL
[2]; brain, oral, mice, normalized to 25 mg/kg, read-out: Exposure/trapezoid AUC0-18
  AUC(0-t): 13100 ng·h/mL
[2]; brain, oral, mice, normalized to 25 mg/kg
  AUC(0-inf): 13200 ng·h/mL
[2]; plasma, oral, mice, normalized to 25 mg/kg (nominal 25 mg/kg)
  Cmax: 10000 ng/mL
[2]; plasma, oral, mice, normalized to 25 mg/kg, read-out: Exposure/trapezoid AUC0-18
  AUC(0-t): 70600 ng·h/mL
[2]; plasma, oral, mice, normalized to 25 mg/kg
  AUC(0-inf): 109000 ng·h/mL
[2]; mouse and rat, brain (and CSF)
  brain concentrations relative to the MIC: decrease rapidly to levels below the MIC within a few hours after dosing
[2]; oral delivery to mice
  dose proportionality of brain exposure: generally dose-proportional increases
  dose proportionality of plasma exposure: greater than proportional at doses above 20 mg/kg
[2]; plasma, oral, mice
  F (% of IV): 26%
[2]; rodents, plasma
  plasma PK when administered to rodents: good exposure (AUC and Cmax), promising bioavailability, prolonged half-life, and low clearance

## COc1cccc(C(=O)Nc2ccc3c(c2)B(O)OC3C)c1 (stereo not shown) [compound 6, N-(1-Hydroxy-3-methyl-1,3-dihydro-benzo[c][1,2]oxaborol-6-yl)-3-methoxy-benzamide]
[3]; T. b. brucei vs L929
  Selectivity Index (L929 IC50 / T. b. brucei IC50): >217
[3]; read-out: T. b. brucei IC50
  IC50: 155 nM
[3]; read-out: T.b. brucei IC50
  IC50: 0.046 µg/mL
[4]
  IC50 at 72 h: > 10 µg/mL

## CC1(C)OB(O)c2cc(NC(=O)c3cc([N+](=O)[O-])ccc3Cl)ccc21 [compound 92]
[3]; read-out: T.b. brucei IC50
  IC50: 0.158 µg/mL
[4]
  IC50 at 72 h: 2.68 µg/mL (≈ 7.43 µM)

## Cc1cc(F)ccc1C(=O)Nc1ccc2c(c1)B(O)OC2(C)C [compound 87, 4-Fluoro-N-(1-hydroxy-3,3-dimethyl-1,3-dihydro-benzo[c][1,2]oxaborol-6-yl)-2-methyl-benzamide]
[3]; read-out: T.b. brucei IC50
  IC50: 3.88 µg/mL
[4]
  IC50 at 72 h: > 10 µg/mL

## Cc1ccc(C(=O)Nc2ccc3c(c2)B(O)OC3(C)C)cc1 [compound 29, N-(1-Hydroxy-3,3-dimethyl-1,3-dihydro-benzo[c][1,2]oxaborol-6-yl)-4-methyl-benzamide]
[3]; read-out: T.b. brucei IC50
  IC50: 3.62 µg/mL
[4]
  IC50 at 72 h: > 10 µg/mL

## CC1(C)OB(O)c2cc(NC(=O)c3cc(C(F)(F)F)ccc3F)ccc21 [compound 85, 2-Fluoro-N-(1-hydroxy-3,3-dimethyl-1,3-dihydro-benzo[c][1,2]oxaborol-6-yl)-5-trifluoromethyl-benzamide]
[3]; read-out: T.b. brucei IC50
  IC50: 1.14 µg/mL
[4]
  IC50 at 72 h: > 10 µg/mL

## CC(C)=Cc1ccc(C(=O)Nc2ccc3c(c2)B(O)OC3(C)C)c(Cl)c1 [compound 99, 2-Chloro-N-(1-hydroxy-3,3-dimethyl-1,3-dihydro-benzo[c][1,2]oxaborol-6-yl)-4-(2-methyl-propenyl)-benzamide]
[3]; read-out: T.b. brucei IC50
  IC50: 0.19 µg/mL
[4]
  IC50 at 72 h: 8.6 µg/mL (≈ 23.3 µM)

## O=C(Nc1ccc2c(c1)B(O)OC2)c1ccc(F)cc1Cl [E14, 2-Chloro-4-fluoro-N-(1-hydroxy-1,3-dihydro-benzo[c][1,2]oxaborol-6-yl)-benzamide]
[2]; [8]
  CL/F: 134 mL/min/kg
  half-life: 1.6 h
[2]; [9]
  Cmax: 2440 ng/mL
  AUC(0-inf): 3150 ng·h/mL
[2]; 8 mg/kg, brain, oral, mice, normalized to 25 mg/kg (Table 3a), read-out: Exposure/trapezoid AUC0-last
  AUC(0-t): 3120 ng·h/mL
[2]; [10]
  CL/F: 28.8 mL/min/kg
  half-life: 2.97 h
[2]; [11]
  Cmax: 3590 ng/mL
  AUC(0-inf): 15200 ng·h/mL
[2]; 8 mg/kg, plasma, oral, mice, normalized to 25 mg/kg (Table 3a), read-out: Exposure/trapezoid AUC0-last
  AUC(0-t): 14400 ng·h/mL

## CC1(C)OB(O)c2cc(NC(=O)c3ccncc3)ccc21 [compound 116, N-(1-Hydroxy-3,3-dimethyl-1,3-dihydro-benzo[c][1,2]oxaborol-6-yl)-isonicotinamide]
[3]; read-out: T.b. brucei IC50
  IC50: > 5 µg/mL
[4]
  IC50 at 72 h: > 10 µg/mL

## CC(C)CC1OB(O)c2cc(NC(=O)c3ccccc3Cl)ccc21 (stereo not shown) [compound 25, 2-Chloro-N-(1-hydroxy-3-isobutyl-1,3-dihydro-benzo[c][1,2]oxaborol-6-yl)-benzamide]
[3]; read-out: T. b. brucei IC50
  IC50: > 14600 nM
[3]; read-out: T.b. brucei IC50
  IC50: > 5 µg/mL
[4]
  IC50 at 72 h: > 10 µg/mL

## CCOc1ccccc1C(=O)Nc1ccc2c(c1)B(O)OC2(C)C [compound 49, 2-Ethoxy-N-(1-hydroxy-3,3-dimethyl-1,3-dihydro-benzo[c][1,2]oxaborol-6-yl)-benzamide]
[3]; read-out: T.b. brucei IC50
  IC50: > 5 µg/mL
[4]
  IC50 at 72 h: > 10 µg/mL
